From ChEMBL document CHEMBL1201862, “PubChem BioAssay data set” (2004)
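Dose response: 5 concentrations. Exposure: 48 h. Format: 96-well plates. Endpoint: linear interpolation; highest concentration if not reached. GI50 is the concentration that inhibits growth by half.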 Activity calls are given as the source filed them. No stated cut-off is given here; in the data, active = GI50 up to about 1.1 µM and inactive = higher.

Tests used:
Experiment in all cases: NCI anticancer screen, dose series, 48 h
DMS-273 = tested on: DMS-273
SW-620 = tested on: SW-620
A498 = tested on: A498
DMS-114 = tested on: DMS-114
EKVX = tested on: EKVX
SN12C = tested on: SN12C
HOP-18 = tested on: HOP-18
KM12 = tested on: KM12
OVCAR-8 = tested on: OVCAR-8
OVCAR-3 = tested on: OVCAR-3
IGROV-1 = tested on: IGROV-1
COLO 205 = tested on: COLO 205
HOP-92 = tested on: HOP-92
HCT-15 = tested on: HCT-15
NCI-H460 = tested on: NCI-H460
786-0 = tested on: 786-0
HCC 2998 = tested on: HCC 2998
HOP-62 = tested on: HOP-62
HCT-116 = tested on: HCT-116
NCI-H226 = tested on: NCI-H226
SK-MEL-2 = tested on: SK-MEL-2
TK-10 = tested on: TK-10
ACHN = tested on: ACHN
SF-539 = tested on: SF-539
OVCAR-4 = tested on: OVCAR-4
SNB-19 = tested on: SNB-19
U-251 = tested on: U-251
SK-OV-3 = tested on: SK-OV-3
LOX IMVI = tested on: LOX IMVI
XF498 = tested on: XF498
HT-29 = tested on: HT-29
SF-268 = tested on: SF-268
SNB-78 = tested on: SNB-78
CCRF-CEM = tested on: CCRF-CEM
M19-MEL = tested on: M19-MEL
NCI-H23 = tested on: NCI-H23
KM-20L2 = tested on: KM-20L2
DLD-1 = tested on: DLD-1
UACC-257 = tested on: UACC-257
A549 = tested on: A549
SF-295 = tested on: SF-295
K562 = tested on: K562
SNB-75 = tested on: SNB-75
UACC-62 = tested on: UACC-62
RPMI-8226 = tested on: RPMI-8226
RXF 631 = tested on: RXF 631
Malme-3M = tested on: Malme-3M
SK-MEL-5 = tested on: SK-MEL-5
SK-MEL-28 = tested on: SK-MEL-28
M14 = tested on: M14
CAKI-1 = tested on: CAKI-1
OVCAR-5 = tested on: OVCAR-5
UO-31 = tested on: UO-31
LXFL 529 = tested on: LXFL 529
NCI-H522 = tested on: NCI-H522
HL-60 = tested on: HL-60
SR = tested on: SR
MOLT-4 = tested on: MOLT-4
RXF 393 = tested on: RXF 393

In the case of `S=c1[nH]c2ccc(Br)cc2c(=S)n1-c1ccccc1`, the GI50 (DMS-273) is reported as 17.1 µM (inactive), the GI50 (SW-620) is reported as 32.7 µM (inactive) and the GI50 (A498) is reported as 32.4 µM (inactive). For the same compound, the GI50 (DMS-114) was 16.9 µM (inactive), the GI50 (EKVX) was 37.2 µM (inactive) and the GI50 (SN12C) was 20.6 µM (inactive). The GI50 (HOP-18) was 16.5 µM (inactive), the GI50 (KM12) was 16.9 µM (inactive) and the GI50 (OVCAR-8) was 30.5 µM (inactive). The GI50 (OVCAR-3) was 20.7 µM (inactive), the GI50 (IGROV-1) was 20.6 µM (inactive) and the GI50 (COLO 205) was 22.2 µM (inactive). For the same compound, the GI50 (HOP-92) was 20 µM (inactive), the GI50 (HCT-15) was 16.1 µM and the GI50 (NCI-H460) was 12.6 µM (inactive). For the same compound, the GI50 (786-0) was 24.5 µM (inactive), the GI50 (HCC 2998) was 13.7 µM (inactive) and the GI50 (HOP-62) was 24.4 µM (inactive). The GI50 (HCT-116) was 8.75 µM (inactive), the GI50 (NCI-H226) was 24.5 µM (inactive) and the GI50 (SK-MEL-2) was 16.4 µM (inactive). The GI50 (TK-10) was 42.4 µM (inactive), the GI50 (ACHN) was 20.3 µM (inactive) and the GI50 (SF-539) was 14.8 µM (inactive). The GI50 (OVCAR-4) was 28.7 µM (inactive), the GI50 (SNB-19) was 5.85 µM (inactive) and the GI50 (U-251) was 6.58 µM (inactive). For the same compound, the GI50 (SK-OV-3) was 43.4 µM (inactive), the GI50 (LOX IMVI) was 19.2 µM (inactive) and the GI50 (XF498) was 19.1 µM (inactive). For the same compound, the GI50 (HT-29) was 21.9 µM (inactive), the GI50 (SF-268) was 11 µM (inactive) and the GI50 (SNB-78) was 49.3 µM (inactive). For the same compound, the GI50 (CCRF-CEM) was 11.8 µM (inactive), the GI50 (M19-MEL) was 17.6 µM (inactive) and the GI50 (NCI-H23) was 10.7 µM (inactive). The GI50 (KM-20L2) was 35.2 µM (inactive), the GI50 (DLD-1) was 28.7 µM (inactive) and the GI50 (UACC-257) was 16.4 µM (inactive). The GI50 (A549) was 26.7 µM (inactive), the GI50 (SF-295) was 16.9 µM (inactive) and the GI50 (K562) was 29.2 µM (inactive). For the same compound, the GI50 (SNB-75) was 34.2 µM (inactive), the GI50 (UACC-62) was 10.5 µM (inactive) and the GI50 (RPMI-8226) was 8.26 µM (inactive). The GI50 (RXF 631) was 26 µM (inactive), the GI50 (Malme-3M) was 17.5 µM (inactive) and the GI50 (SK-MEL-5) was 16.4 µM (inactive). The GI50 (SK-MEL-28) was 9.89 µM (inactive), the GI50 (M14) was 20.7 µM (inactive) and the GI50 (CAKI-1) was 29.2 µM (inactive). The GI50 (OVCAR-5) was 32.5 µM (inactive) and the GI50 (UO-31) was 16.4 µM (inactive).

With `O=C(NCCCCCCNC(=O)c1cccc2ccccc12)c1cccc2ccccc12` the GI50 (LXFL 529) was 57.1 µM (inactive), the GI50 (DMS-273) was 2.02 µM (inactive) and the GI50 (SW-620) was > 100 µM (inactive). For the same compound, the GI50 (A498) was 24.3 µM (inactive), the GI50 (DMS-114) was > 100 µM (inactive) and the GI50 (EKVX) was 20.5 µM (inactive). For the same compound, the GI50 (SN12C) was 25.7 µM (inactive), the GI50 (HOP-18) was 24.6 µM (inactive) and the GI50 (KM12) was > 100 µM (inactive). For the same compound, the GI50 (OVCAR-8) was 18.7 µM (inactive), the GI50 (OVCAR-3) was 28.9 µM (inactive) and the GI50 (NCI-H522) was 17.9 µM (inactive). For the same compound, the GI50 (IGROV-1) was 32.9 µM (inactive), the GI50 (COLO 205) was 1.85 µM (inactive) and the GI50 (HOP-92) was 7.96 µM (inactive). For the same compound, the GI50 (HCT-15) was over 100 µM, the GI50 (NCI-H460) was 42.5 µM (inactive) and the GI50 (786-0) was 23.7 µM (inactive). For the same compound, the GI50 (HOP-62) was 20.5 µM (inactive), the GI50 (HCT-116) was 14.4 µM (inactive) and the GI50 (NCI-H226) was 17.8 µM (inactive). For the same compound, the GI50 (SK-MEL-2) was 12.2 µM (inactive), the GI50 (TK-10) was 14.9 µM (inactive) and the GI50 (ACHN) was 31.4 µM (inactive). The GI50 (SF-539) was 11.8 µM (inactive), the GI50 (OVCAR-4) was 14.4 µM (inactive) and the GI50 (U-251) was 18.3 µM (inactive). The GI50 (HL-60) was > 100 µM (inactive), the GI50 (SR) was > 100 µM (inactive) and the GI50 (SK-OV-3) was 21.2 µM (inactive). The GI50 (LOX IMVI) was 14.2 µM (inactive), the GI50 (XF498) was 3.2 µM (inactive) and the GI50 (HT-29) was > 100 µM (inactive). For the same compound, the GI50 (SF-268) was 10.3 µM (inactive), the GI50 (SNB-78) was 5.42 µM (inactive) and the GI50 (CCRF-CEM) was > 100 µM (inactive). The GI50 (NCI-H23) was 31.5 µM (inactive), the GI50 (KM-20L2) was > 100 µM (inactive) and the GI50 (DLD-1) was 59.7 µM (inactive). For the same compound, the GI50 (MOLT-4) was > 100 µM (inactive), the GI50 (UACC-257) was 74.3 µM (inactive) and the GI50 (A549) was 35.4 µM (inactive). For the same compound, the GI50 (SF-295) was 1.93 µM (inactive), the GI50 (K562) was > 100 µM (inactive) and the GI50 (SNB-75) was 3.29 µM (inactive). For the same compound, the GI50 (UACC-62) was > 100 µM (inactive), the GI50 (RPMI-8226) was > 100 µM (inactive) and the GI50 (RXF 631) was 47.2 µM (inactive). The GI50 (Malme-3M) was 33.3 µM (inactive), the GI50 (RXF 393) was 8.51 µM (inactive) and the GI50 (SK-MEL-5) was > 100 µM (inactive). For the same compound, the GI50 (SK-MEL-28) was > 100 µM (inactive), the GI50 (M14) was 46.8 µM (inactive) and the GI50 (CAKI-1) was 21.3 µM (inactive). The GI50 (OVCAR-5) was > 100 µM (inactive) and the GI50 (UO-31) was 31.5 µM (inactive).
